In general, IC50 refers to the concentration that gives 50% inhibition.

In publication PMC4102788, “Linking off-target kinase pharmacology to the differential cellular effects observed among PARP inhibitors” (Oncotarget, 2014) one finds IC50 data, which are given here for one compound.

Assay [1] deals with T1, human CDK9 kinase (Homo sapiens, UniProt P50750).
T1 construct: purchased Cerep (CRO that ran the assay) 2912 (781-cdk9); host or cells: Sf9 cells
Kind of assay: Human CDK9 kinase in vitro inhibition assay (Cerep, LANCE). Conditions: human recombinant enzyme, 10 µM ATP. The format is biochemical. The source says:
(§1) Rucaparib, veliparib and olaparib were purchased from Selleckchem. Kinase in vitro assays were perfomed at Cerep (www.cerep.fr) by measuring the phosphorylation of appropriate peptide substrates by human recombinant enzymes and using FRET as a detection method (a detailed description of each kinase assay is available in online supplementary data).
Human CDK9 kinase in vitro inhibition assay
All details for the CDK9 in vitro assay can be consulted in the Cerep Catalogue available online under references 2912 (781-cdk9): http://www.cerep.fr/cerep/users/pages/catalog/Affiche_CondExp_Test.asp?test=2912 Evaluation of the effects of compounds on the activity of the human CDK9 quantified by measuring the phosphorylation of the substrate Ulight- […]
mixture is incubated for 90 min at room temperature. […] After 60 more min, the fluorescence transfer is measured at λex=337 nm, λem=620 nm and λem=665 nm using a microplate reader (Envision, Perkin Elmer). The enzyme activity is determined by dividing the signal measured at λem=665 nm by that measured at λem=620 nm (ratio). The results are expressed as a percent inhibition of the control enzyme activity. The standard inhibitory reference compound is staurosporine, which is tested in each experiment at several concentrations to obtain an inhibition curve from which its IC50 value is calculated. […]
(In TR-FRET formats the signal depends on donor and acceptor labels being close together.)

Assay [2] deals with T2, human PIM2 kinase (Homo sapiens, UniProt Q9P1W9).
T2 construct: purchased Cerep (CRO that ran the assay) 2920 (745-P2); host or cells: insect cells
The assay can be described thus: Human Pim2 kinase in vitro inhibition assay (Cerep, LANCE/FRET). The format is biochemical.
Excerpt: as §1
Human Pim1 and Pim2 kinase in vitro inhibition assays
All details for the Pim1 and Pim2 in vitro assays can be consulted in the Cerep […]
http://www.cerep.fr/cerep/users/pages/catalog/Affiche_CondExp_Test.asp?test=2919, http://www.cerep.fr/cerep/users/pages/catalog/Affiche_CondExp_Test.asp?test=2920.
Evaluation of the effects of compounds on the activity of the human Pim1 and Pim2 kinases were quantified by measuring the phosphorylation of the substrate Ulight- […]
([…]) and ATP (30 µM for Pim1 and 3 µM for Pim2), and the mixture is incubated for 60 min at room temperature. […] After 60 more min, the fluorescence transfer is measured at λex=337 nm, λem=620 nm and λem=665 nm using a microplate reader (Envision, Perkin Elmer).
The enzyme activity is determined by dividing the signal measured at λem=665 nm by that measured at λem=620 nm (ratio). The results are expressed as a percent inhibition of the control enzyme activity. […]

T1 sequence (P50750 whole entry): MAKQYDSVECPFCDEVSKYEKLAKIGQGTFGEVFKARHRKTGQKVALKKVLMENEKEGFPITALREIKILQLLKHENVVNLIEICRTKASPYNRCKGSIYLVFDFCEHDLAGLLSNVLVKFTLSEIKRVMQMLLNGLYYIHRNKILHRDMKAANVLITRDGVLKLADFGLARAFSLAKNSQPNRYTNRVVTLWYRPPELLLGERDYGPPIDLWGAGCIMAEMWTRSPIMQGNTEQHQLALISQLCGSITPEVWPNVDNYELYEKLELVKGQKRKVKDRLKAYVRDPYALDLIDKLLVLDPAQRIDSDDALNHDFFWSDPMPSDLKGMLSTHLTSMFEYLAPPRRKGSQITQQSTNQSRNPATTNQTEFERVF
T1 sequence (O60563 whole entry partner): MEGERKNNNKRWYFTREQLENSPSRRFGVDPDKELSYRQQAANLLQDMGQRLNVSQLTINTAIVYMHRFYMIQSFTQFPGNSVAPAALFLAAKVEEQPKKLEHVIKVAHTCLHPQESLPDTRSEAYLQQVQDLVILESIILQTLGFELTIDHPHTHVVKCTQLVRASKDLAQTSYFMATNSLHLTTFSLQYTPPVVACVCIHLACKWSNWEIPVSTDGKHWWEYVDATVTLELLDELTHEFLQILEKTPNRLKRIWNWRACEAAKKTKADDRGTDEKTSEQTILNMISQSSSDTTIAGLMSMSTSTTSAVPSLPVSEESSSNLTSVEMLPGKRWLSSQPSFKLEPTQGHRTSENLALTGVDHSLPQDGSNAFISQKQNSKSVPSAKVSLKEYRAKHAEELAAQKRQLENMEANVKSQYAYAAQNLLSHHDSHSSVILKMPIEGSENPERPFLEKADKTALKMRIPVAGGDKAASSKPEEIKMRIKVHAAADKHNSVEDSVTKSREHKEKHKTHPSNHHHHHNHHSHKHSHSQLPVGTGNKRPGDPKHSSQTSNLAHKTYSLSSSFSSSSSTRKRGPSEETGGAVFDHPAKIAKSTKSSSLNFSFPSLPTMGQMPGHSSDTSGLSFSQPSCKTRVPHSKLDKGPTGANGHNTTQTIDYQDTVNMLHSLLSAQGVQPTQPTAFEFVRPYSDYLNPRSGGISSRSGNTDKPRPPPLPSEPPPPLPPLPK
T2 sequence (Q9P1W9 whole entry): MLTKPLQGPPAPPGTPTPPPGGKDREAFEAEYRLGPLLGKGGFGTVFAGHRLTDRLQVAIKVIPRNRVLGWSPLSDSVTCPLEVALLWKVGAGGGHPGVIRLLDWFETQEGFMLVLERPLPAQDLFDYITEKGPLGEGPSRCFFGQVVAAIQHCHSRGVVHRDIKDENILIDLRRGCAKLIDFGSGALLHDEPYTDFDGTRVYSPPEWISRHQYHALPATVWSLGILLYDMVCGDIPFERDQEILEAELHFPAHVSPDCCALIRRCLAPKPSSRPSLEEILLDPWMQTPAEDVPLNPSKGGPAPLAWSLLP

Turning to `CNCc1ccc(-c2[nH]c3cc(F)cc4c3c2CCNC4=O)cc1` [rucaparib], the IC50 in assay [1] amounted to 2.7 µM; in assay [2], 7.7 µM.
